# Measurements from patent US7528148B2, “Pyrazolo[3,4-B]pyridine compounds, and their use as phosphodiesterase inhibitors” (Glaxo Group Limited, priority 2002, dated 2009).
# Tested on: pica feeding response of rats
# Assay: In Vivo Assay 2: rat pica model of emesis
# Details: oral dosing, upper end given as greater than about 50 mg/kg
# Excerpt: In Vivo Assay 2. Rat Pica Model of Emesis
# However, a side effect of some PDE4 inhibitors in many species is emesis. Because many rat models of inflammation are well characterized, they have been used in procedures (see e.g. In Vivo Assay 1 above) to show beneficial anti-inflammatory effects of PDE 4 inhibitors. However rats have no emetic response (they have no vomit reflex), so that the relationship between beneficial anti-inflammatory effects of PDE 4 inhibitors and emesis is difficult to study directly in rats.
# Pica feeding is a behavioural response to illness in rats wherein rats eat non-nutritive substances such as earth or in particular clay (e.g. kaolin) which may help to absorb toxins. Pica feeding can be induced by motion and chemicals (especially chemicals which are emetic in humans), and can be inhibited pharmacologically with drugs that inhibit emesis in humans. The Rat Pica Model, In Vivo Assay 2, can determine the level of pica response of rats to PDE 4 inhibition at pharmacologically relevant doses in parallel to in vivo anti-inflammatory Assays in (a separate set of) rats (e.g. In Vivo Assay 1 above). Anti-inflammatory and pica assays in the same species together can provide data on the “therapeutic index” (TI) in the rat of the compounds/salts of the invention. The Rat TI can for example be calculated as the ratio of a) the potentially-emetic Pica Response ED50 dose from Assay 2 to b) the rat anti-inflammatory ED50 dose (e.g. measured by rat neutrophilia-inhibition in eg In Vivo Assay 1), with larger TI ratios possibly indicating lower emesis at many anti-inflammatory doses. This might allow a choice of a non-emetic or minimal-emetic pharmaceutical dose of the compounds or salts of the invention which has an anti-inflammatory effect. It is recognised however that achieving a low-emetic PDE4 inhibitory compound is not essential to the invention.
# Procedure: On the first day of the experiment, the rats are housed individually in cages without bedding or “enrichment”. The rats are kept off of the cage floor by a wire screen. Pre-weighed food cups containing standard rat chow and clay pellets are placed in the cage. The clay pellets, obtainable from Languna Clay Co, City of Industry, Calif., USA, are the same size and shape as the food pellets. The rats are acclimated to the clay for 72 hours, during which time the cups and food and clay debris from the cage are weighed daily on an electronic balance capable of measuring to the nearest 0.1 grams. By the end of the 72 hour acclimation period the rats generally show no interest in the clay pellets.
# At the end of 72 hours the rats are placed in clean cages and the food cups weighed. Rats that are still consuming clay regularly are removed from the study. […] The food and clay cups and cage debris are weighed the following day and the total clay and food consumed that night by each individual animal is calculated.
# A dose response is calculated by first converting the data into quantal response, where animals are either positive or negative for the pica response. A rat is “pica positive” if it consumes greater than or equal to 0.3 grams of clay […] using logistic regression performed by the Statistica software statistical package. A Pica Response ED50 value in mg per kg of body weight can then be calculated. […]
row,Compound,ED50 [mg/kg]
1,"CCn1ncc2c(NC3CCOCC3)c(-c3nnc(CS(C)(=O)=O)o3)cnc21 [Example 23, 1-Ethyl-5-{5-[(methylsulfonyl)methyl]-1,3,4-oxadiazol-2-yl}-N-(tetrahydro-2H-pyran-4-yl)-1H-pyrazolo[3,4-b]pyridin-4-amine]",2 to 50
2,"CCn1ncc2c(NC3CCOCC3)c(-c3nnc(C(C)(C)C)o3)cnc21 [Example 17, 5-(S-Tert-butyl-1,3,4-oxadiazol-2-yl)-1-ethyl-N-(tetrahydro-2H-pyran-4-yl)-1H-pyrazolo[3,4-b]pyridin-4-amine]",2 to 50
3,"CCn1ncc2c(NC3CCOCC3)c(-c3nnc(CN4CCN(C)CC4)o3)cnc21 [Example 35, 1-Ethyl-5-{5-[(4-methylpiperazin-1-yl)methyl]-1,3,4-oxadiazol-2-yl}-N-(tetrahydro-2H-pyran-4-yl)-1H-pyrazolo[3,4-b]pyridin-4-amine]",2 to 50
4,"CCn1ncc2c(NC3CCOCC3)c(-c3nnc(C4CCOCC4)o3)cnc21 [Example 38, 1-Ethyl-N-(tetrahydro-2H-pyran-4-yl)-5-[5-(tetrahydro-2H-pyran-4-yl)-1,3,4-oxadiazol-2-yl]-1H-pyrazolo[3,4-b]pyridin-4-amine]",2 to 50
5,"CCn1ncc2c(NC3CCOCC3)c(-c3nnc(C)o3)cnc21 [Example 14, 1-Ethyl-5-(5-methyl-1,3,4-oxadiazol-2-yl)-N-(tetrahydro-2H-pyran-4-yl)-1H-pyrazolo[3,4-b]pyridin-4-amine]",2 to 50
